Results taken from publication PMC11153306, “Unraveling the efficacy of verbascoside in thwarting MRSA pathogenicity by targeting sortase A” (Applied Microbiology and Biotechnology, 2024).

Target: T1, sortase A (SrtA) (Staphylococcus aureus, UniProt Q2FV99)
T1 construct: 6 × His recombinant SrtA from pET28a::srtA
Test: intrinsic fluorescence quenching (Stern-Volmer, KA); supported by FRET inhibition of purified SrtA (IC50 […]) and reversibility by dilution
Format: binding
Details: read-out: intrinsic fluorescence quenching (Stern-Volmer, KA); supported by FRET inhibitio (converted)
Description: This indicated a significant interaction between verbascoside and SrtA

T1 sequence (Q2FV99 whole entry): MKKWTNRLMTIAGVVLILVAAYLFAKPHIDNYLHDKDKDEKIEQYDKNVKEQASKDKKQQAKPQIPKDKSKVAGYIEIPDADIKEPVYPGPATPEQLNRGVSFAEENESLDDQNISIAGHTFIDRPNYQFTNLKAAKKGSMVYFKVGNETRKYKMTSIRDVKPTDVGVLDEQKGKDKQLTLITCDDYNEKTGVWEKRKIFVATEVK

C[C@@H]1O[C@@H](O[C@@H]2[C@@H](O)[C@H](OCCc3ccc(O)c(O)c3)O[C@H](CO)[C@H]2OC(=O)/C=C/c2ccc(O)c(O)c2)[C@H](O)[C@H](O)[C@H]1O [verbascoside]
Kd: 41 µM
